US11957696B2 (Propella Therapeutics, Inc., priority 2021, dated 2024)

Test system: CYP17 hydroxylase/lyase
Experiment: Steroid hormone analysis (serum) in 13-week study
Assay type: in vivo, cynomolgus monkeys
Details: for Serum 17OH-Progesterone CFB (vs Day −1) / Serum 17OH-Progesterone Mean / Serum Aldosterone CFB (vs Day −1) / Serum Aldosterone Mean / Serum Androstenedione CFB (vs Day −1) / Serum Androstenedione Mean / Serum Corticosterone CFB (vs Day −1) / Serum Corticosterone Mean / Serum Cortisol CFB (vs Day −1) / Serum Cortisol Mean / Serum Dehydroepiandrosterone CFB (vs Day −1) / Serum Dehydroepiandrosterone Mean / Serum Deoxycortisol CFB (vs Day −1) / Serum Deoxycortisol Mean / Serum Dihydrotestosterone CFB (vs Day −1) / Serum Dihydrotestosterone Mean / Serum Progesterone CFB (vs Day −1) / Serum Progesterone Mean / Serum Testosterone CFB (vs Day −1) / Serum Testosterone Mean: intact male monkeys
Method: Sample Collection for Steroid Hormone Analysis (Serum): Blood samples (approximately 2.5 mL) were collected from all animals via the femoral vein for the steroid hormone analysis. The animals were fasted prior to blood collection.

[1] = 20 mg/kg IM every two weeks, Day 15
[2] = 20 mg/kg IM every two weeks, Day 85
[3] = 60 mg/kg IM every two weeks, Day 15
[4] = 60 mg/kg IM every two weeks, Day 85
[5] = 200 mg/kg IM every two weeks, Day 15
[6] = 200 mg/kg IM every two weeks, Day 85
[7] = Day 85, 20 and 60 mg/kg dose groups

CCCCCCCCCC(=O)O[C@H]1CC[C@@]2(C)C(=CC[C@@H]3[C@@H]2CC[C@]2(C)C(c4cccnc4)=CC[C@@H]32)C1 [Abiraterone Decanoate, abiraterone decanoate]
Serum 17OH-Progesterone CFB (vs Day −1) [1]: 1060% | Serum 17OH-Progesterone Mean [1]: 4289 pg/mL | Serum Aldosterone CFB (vs Day −1) [1]: −68% | Serum Aldosterone Mean [1]: 45 pg/mL | Serum Androstenedione CFB (vs Day −1) [1]: −82% | Serum Androstenedione Mean [1]: 39 pg/mL | Serum Corticosterone CFB (vs Day −1) [1]: 3361% | Serum Corticosterone Mean [1]: 110635 pg/mL | Serum Cortisol CFB (vs Day −1) [1]: −76% | Serum Cortisol Mean [1]: 34897 pg/mL | Serum Dehydroepiandrosterone CFB (vs Day −1) [1]: −73% | Serum Dehydroepiandrosterone Mean [1]: 1500 pg/mL | Serum Deoxycortisol CFB (vs Day −1) [1]: −64% | Serum Deoxycortisol Mean [1]: 241 pg/mL | Serum Dihydrotestosterone CFB (vs Day −1) [1]: −87% | Serum Dihydrotestosterone Mean [1]: 195 pg/mL | Serum Progesterone CFB (vs Day −1) [1]: 51539% | Serum Progesterone Mean [1]: 10328 pg/mL | Serum Testosterone CFB (vs Day −1) [1]: −65% | Serum Testosterone Mean [1]: 2148 pg/mL | Serum Testosterone CFB (vs Day −1) (20 mg/kg IM every two weeks, Day 15, listed as AbiDec): −87% | Serum 17OH-Progesterone CFB (vs Day −1) [2]: 1968% | Serum 17OH-Progesterone Mean [2]: 7647 pg/mL | Serum Aldosterone CFB (vs Day −1) [2]: 40% | Serum Aldosterone Mean [2]: 199 pg/mL | Serum Androstenedione CFB (vs Day −1) [2]: −53% | Serum Androstenedione Mean [2]: 106 pg/mL | Serum Corticosterone CFB (vs Day −1) [2]: 2837% | Serum Corticosterone Mean [2]: 93869 pg/mL | Serum Cortisol CFB (vs Day −1) [2]: −58% | Serum Cortisol Mean [2]: 62490 pg/mL | Serum Dehydroepiandrosterone CFB (vs Day −1) [2]: −76% | Serum Dehydroepiandrosterone Mean [2]: 1372 pg/mL | Serum Deoxycortisol CFB (vs Day −1) [2]: −47% | Serum Deoxycortisol Mean [2]: 357 pg/mL | Serum Dihydrotestosterone CFB (vs Day −1) [2]: −61% | Serum Dihydrotestosterone Mean [2]: 578 pg/mL | Serum Progesterone CFB (vs Day −1) [2]: 47710% | Serum Progesterone Mean [2]: 9562 pg/mL | Serum Testosterone CFB (vs Day −1) [2]: 3% | Serum Testosterone Mean [2]: 6286 pg/mL | Serum 17OH-Progesterone CFB (vs Day −1) [3]: 944% | Serum 17OH-Progesterone Mean [3]: 1631 pg/mL | Serum Aldosterone CFB (vs Day −1) [3]: −94% | Serum Aldosterone Mean [3]: 14 pg/mL | Serum Androstenedione CFB (vs Day −1) [3]: −94% | Serum Androstenedione Mean [3]: 20 pg/mL | Serum Corticosterone CFB (vs Day −1) [3]: 5279% | Serum Corticosterone Mean [3]: 163079 pg/mL | Serum Cortisol CFB (vs Day −1) [3]: −87% | Serum Cortisol Mean [3]: 18271 pg/mL | Serum Dehydroepiandrosterone CFB (vs Day −1) [3]: −75% | Serum Dehydroepiandrosterone Mean [3]: 1271 pg/mL | Serum Deoxycortisol CFB (vs Day −1) [3]: −72% | Serum Deoxycortisol Mean [3]: 93 pg/mL | Serum Dihydrotestosterone CFB (vs Day −1) [3]: −95% | Serum Dihydrotestosterone Mean [3]: 64 pg/mL | Serum Progesterone CFB (vs Day −1) [3]: 69193% | Serum Progesterone Mean [3]: 13859 pg/mL | Serum Testosterone CFB (vs Day −1) [3]: −94% | Serum Testosterone Mean [3]: 335 pg/mL | Serum Testosterone CFB (vs Day −1) (60 mg/kg IM every two weeks, Day 15, listed as AbiDec): −95% | Serum 17OH-Progesterone CFB (vs Day −1) [4]: 5546% | Serum 17OH-Progesterone Mean [4]: 8821 pg/mL | Serum Aldosterone CFB (vs Day −1) [4]: −18% | Serum Aldosterone Mean [4]: 194 pg/mL | Serum Androstenedione CFB (vs Day −1) [4]: −77% | Serum Androstenedione Mean [4]: 79 pg/mL | Serum Corticosterone CFB (vs Day −1) [4]: 3878% | Serum Corticosterone Mean [4]: 120598 pg/mL | Serum Cortisol CFB (vs Day −1) [4]: −72% | Serum Cortisol Mean [4]: 39689 pg/mL | Serum Dehydroepiandrosterone CFB (vs Day −1) [4]: −76% | Serum Dehydroepiandrosterone Mean [4]: 1200 pg/mL | Serum Deoxycortisol CFB (vs Day −1) [4]: −7% | Serum Deoxycortisol Mean [4]: 315 pg/mL | Serum Dihydrotestosterone CFB (vs Day −1) [4]: −69% | Serum Dihydrotestosterone Mean [4]: 361 pg/mL | Serum Progesterone CFB (vs Day −1) [4]: 67947% | Serum Progesterone Mean [4]: 13609 pg/mL | Serum Testosterone CFB (vs Day −1) [4]: 1% | Serum Testosterone Mean [4]: 5453 pg/mL | Serum 17OH-Progesterone CFB (vs Day −1) [5]: 158% | Serum 17OH-Progesterone Mean [5]: 474 pg/mL | Serum Aldosterone CFB (vs Day −1) [5]: −91% | Serum Aldosterone Mean [5]: 19 pg/mL | Serum Androstenedione CFB (vs Day −1) [5]: −93% | Serum Androstenedione Mean [5]: 20 pg/mL | Serum Corticosterone CFB (vs Day −1) [5]: 4238% | Serum Corticosterone Mean [5]: 138133 pg/mL | Serum Cortisol CFB (vs Day −1) [5]: −93% | Serum Cortisol Mean [5]: 7703 pg/mL | Serum Dehydroepiandrosterone CFB (vs Day −1) [5]: −64% | Serum Dehydroepiandrosterone Mean [5]: 1200 pg/mL | Serum Deoxycortisol CFB (vs Day −1) [5]: −84% | Serum Deoxycortisol Mean [5]: 44 pg/mL | Serum Dihydrotestosterone CFB (vs Day −1) [5]: −96% | Serum Dihydrotestosterone Mean [5]: 67 pg/mL | Serum Progesterone CFB (vs Day −1) [5]: 59894% | Serum Progesterone Mean [5]: 11999 pg/mL | Serum Testosterone CFB (vs Day −1) [5]: −99% | Serum Testosterone Mean [5]: 100 pg/mL | Serum Testosterone CFB (vs Day −1) (200 mg/kg IM every two weeks, Day 15, listed as AbiDec): −96% | Serum 17OH-Progesterone CFB (vs Day −1) [6]: 1696% | Serum 17OH-Progesterone Mean [6]: 3296 pg/mL | Serum Aldosterone CFB (vs Day −1) [6]: −82% | Serum Aldosterone Mean [6]: 37 pg/mL | Serum Androstenedione CFB (vs Day −1) [6]: −87% | Serum Androstenedione Mean [6]: 39 pg/mL | Serum Corticosterone CFB (vs Day −1) [6]: 3468% | Serum Corticosterone Mean [6]: 113629 pg/mL | Serum Cortisol CFB (vs Day −1) [6]: −83% | Serum Cortisol Mean [6]: 19682 pg/mL | Serum Dehydroepiandrosterone CFB (vs Day −1) [6]: −64% | Serum Dehydroepiandrosterone Mean [6]: 1200 pg/mL | Serum Deoxycortisol CFB (vs Day −1) [6]: −49% | Serum Deoxycortisol Mean [6]: 141 pg/mL | Serum Dihydrotestosterone CFB (vs Day −1) [6]: −90% | Serum Dihydrotestosterone Mean [6]: 165 pg/mL | Serum Progesterone CFB (vs Day −1) [6]: 75799% | Serum Progesterone Mean [6]: 15180 pg/mL | Serum Testosterone CFB (vs Day −1) [6]: −87% | Serum Testosterone Mean [6]: 1246 pg/mL | Serum Testosterone CFB (vs Day −1) (200 mg/kg IM every two weeks, Day 85, listed as AbiDec): −87% | serum testosterone levels reduced (200 mg/kg/dose, for at least 85 days): more than 75% | Androstenedione serum concentration below Day −1 [7]: 53-77% | dihydrotestosterone serum concentration below Day −1 [7]: 61-69% | circulating androgen levels (gonadally intact male monkeys, appeared dose dependent, sustained for testosterone through Day 85 at 200 mg/kg/dose): potent reductions in circulating androgen levels | Serum testosterone concentrations following repeat administration (two lower dose groups (20, 60 mg/kg) by Day 85): returned to baseline
